Results taken from patent US11591355B2 (Peloton Therapeutics, Inc., priority 2017, dated 2023).
Where two headings read alike, the source gives them in different places.

Columns and labels:
[1] = biological target: T1, Human CD73 (Homo sapiens, UniProt P21589); assay: CD73 Enzyme Assay; format: biochemical; details: read-out: CD73 Enzyme Assay IC50
T1 construct: purchased R&D Systems; host or cells: CHO cells
T1 sequence (P21589 27-549): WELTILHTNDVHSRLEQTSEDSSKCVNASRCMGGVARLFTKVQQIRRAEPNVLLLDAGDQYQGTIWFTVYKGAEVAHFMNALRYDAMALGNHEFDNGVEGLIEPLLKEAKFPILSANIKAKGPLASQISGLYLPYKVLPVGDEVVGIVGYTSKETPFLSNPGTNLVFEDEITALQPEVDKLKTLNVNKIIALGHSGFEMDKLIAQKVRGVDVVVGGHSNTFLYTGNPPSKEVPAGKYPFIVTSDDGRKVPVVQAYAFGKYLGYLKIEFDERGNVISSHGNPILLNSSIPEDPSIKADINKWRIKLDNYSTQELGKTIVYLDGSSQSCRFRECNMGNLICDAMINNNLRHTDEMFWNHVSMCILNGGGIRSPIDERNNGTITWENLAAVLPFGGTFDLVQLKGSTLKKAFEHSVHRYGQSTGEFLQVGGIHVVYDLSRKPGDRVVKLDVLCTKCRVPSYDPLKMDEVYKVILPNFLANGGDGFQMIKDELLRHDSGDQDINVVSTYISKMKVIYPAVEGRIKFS

[2] = biological target: T2, CD73 on U138 human neuroglioma cells (Homo sapiens, UniProt P21589); assay: CD73 Cell-Based Assay
T2 construct: U138 cells were obtained from ATCC and cultured in DMEM with 10% FBS; host or cells: U138 human neuroglioma cells
T2 sequence (P21589 27-549): T1 sequence (P21589 27-549)
Procedure: U138 human neuroglioma cells were used in these experiments. U138 cells were obtained from ATCC and cultured in DMEM with 10% FBS. 2500 cells were seeded into 96-well plate with 100 μL of media the day before the experiment. Cells were washed twice with 200 μL of assay buffer (20 mM HEPES, pH 7.4; 137 mM NaCl; 5.4 mM KCl; 1.3 mM CaCl2); 4.2 mM NaHCO3; 1 mg/mL glucose) to remove residual inorganic phosphate. After washing, 100 μL of buffer was added to each well, then 100 μL of a mixture of AMP substrate (200 μM) and diluted compound was added to each well. The cells were incubated at 37° C. (with 5% CO2) for 2 hours. 50 μL of supernatant was transferred to a 96-well assay plate and the concentration of inorganic phosphate was determined using malachite green reagent (R&D System; Cat: DY996).

[3] = 0.25 nM hCD73, 25 μM AMP, kinetic read at 360 nm
[4] = U138 cells, AMP substrate, 2 hours at 37° C., inorganic phosphate by malachite green

IC50 [1, 3]	IC50 [2, 4]	SMILES	IC50 [1]	IC50 [2]
< 10 nM	< 10 nM	C[C@H](Nc1nc(Cl)nc2c1ccn2[C@@H]1O[C@H](COCP(=O)(O)O)[C@@H](O)[C@H]1O)c1ccc(F)cc1F [Compound 116, [(2R,3S,4R,5R)-5-[2-chloro-4-[[(1S)-1-(2,4-difluorophenyl)-ethyl]amino]pyrrolo-[2,3-d]pyrimidin-7-yl]-3,4-dihydroxy-tetrahydrofuran-2-yl]methoxymethyl-phosphonic acid]		
10 to 100 nM	10 to 100 nM	O=P(O)(O)COC[C@H]1O[C@@H](n2ccc3c(N[C@@H](CO)c4ccccc4)nc(Cl)nc32)[C@H](O)[C@@H]1O [Compound 218, [(2R,3S,4R,5R)-5-[2-chloro-4-[[(1R)-2-hydroxy-1-phenyl-ethyl]amino]pyrrolo-[2,3-d]pyrimidin-7-yl]-3,4-dihydroxy-tetra-hydrofuran-2-yl]-methoxymethylphos-phonic acid]		
< 10 nM	< 10 nM	O=P(O)(O)COC[C@H]1O[C@@H](n2ccc3c(N4CCC(F)(F)C4)nc(Cl)nc32)[C@H](O)[C@@H]1O [Compound 123, [(2R,3S,4R,5R)-5-[2-chloro-4-(3,3-difluoro-pyrrolidin-1-yl)pyrrolo-[2,3-d]pyrimidin-7-yl]-3,4-dihydroxy-tetrahydrofuran-2-yl]-methoxymethylphos-phonic acid]		
< 10 nM	< 10 nM	CC#Cc1nc(NC2CCCC2)c2ccn([C@@H]3O[C@H](COCP(=O)(O)O)[C@@H](O)[C@H]3O)c2n1 [Compound 266, [(2R,3S,4R,5R)-5-[4-(cyclopentylamino)-2-prop-1-ynyl-pyrrolo-[2,3-d]pyrimidin-7-yl]-3,4-dihydroxy-tetrahydrofuran-2-yl]-methoxymethylphos-phonic acid]		
< 10 nM	< 10 nM	C[C@H](Nc1nc(C#N)nc2c1ccn2[C@@H]1O[C@H](COCP(=O)(O)O)[C@@H](O)[C@H]1O)c1ccc(C2CC2)cc1 [Compound 204, [(2R,3S,4R,5R)-5-[2-cyano-4-[[(1S)-1-(4-cyclopropylphenyl)-ethyl]amino]pyrrolo-[2,3-d]pyrimidin-7-yl]-3,4-dihydroxy-tetra-hydrofuran-2-yl]-methoxymethylphos-phonic acid]		
		CCOP(=O)(O)COC[C@H]1O[C@@H](n2ccc3c(NC4CCCC4)nc(Cl)nc32)[C@H](O)[C@@H]1O [Compound 184, [(2R,3S,4R,5R)-5-[2-chloro-4-(cyclopentyl-amino)pyrrolo[2,3-d]-pyrimidin-7-yl]-3,4-dihydroxy-tetrahydro-furan-2-yl]methoxy-methylethoxy-phos-phinic acid]	> 1000 nM	100 to 1000 nM
< 10 nM	10 to 100 nM	CN(C)c1nc(Cl)nc2c1ccn2[C@@H]1O[C@H](COCP(=O)(O)O)[C@@H](O)[C@H]1O [Compound 93, [(2R,3S,4R,5R)-5-[2-chloro-4-(dimethyl-amino)pyrrolo[2,3-d]-pyrimidin-7-yl]-3,4-dihydroxy-tetrahydro-furan-2-yl]methoxy-methylphosphonic acid]		
< 10 nM	100 to 1000 nM	CC(C)(C)C(=O)OCOP(=O)(O)COC[C@H]1O[C@@H](n2ccc3c(NC4CCCC4)nc(Cl)nc32)[C@H](O)[C@@H]1O [Compound 188, [(2R,3S,4R,5R)-5-[2-chloro-4-(cyclopentyl-amino)pyrrolo[2,3-d]-pyrimidin-7-yl]-3,4-dihydroxy-tetrahydro-furan-2-yl]methoxy-methyl-(2,2-dimethyl-propanoyloxymethoxy)-phosphinic acid]		
10 to 100 nM	10 to 100 nM	C[C@H](Nc1ncnc2c1ncn2[C@@H]1O[C@H](COCP(=O)(O)O)[C@@H](O)[C@H]1O)c1ccc(F)cc1 [Compound 49, [(2R,3S,4R,5R)-5-[6-[[(1S)-1-(4-fluoro-phenyl)ethyl]amino]-purin-9-yl]-3,4-dihydroxy-tetrahydro-furan-2-yl]methoxy-methylphosphonic acid]		
< 10 nM	< 10 nM	CC(C)N(C)c1nc(Cl)nc2c1ccn2[C@@H]1O[C@H](CS(=O)(=O)CP(=O)(O)O)[C@@H](O)[C@H]1O [Compound 177, [(2S,3S,4R,5R)-5-[2-chloro-4-[isopropyl-(methyl)amino]-pyrrolo[2,3-d]-pyrimidin-7-yl]-3,4-dihydroxy-tetrahydro-furan-2-yl]methyl-sulfonylmethylphos-phonic acid]		
10 to 100 nM	< 10 nM	C[C@@H](Nc1nc(Cl)nc2c1ccn2[C@@H]1O[C@H](COCP(=O)(O)O)[C@@H](O)[C@H]1O)c1ccc(C(F)(F)F)cc1 [Compound 114, [(2R,3S,4R,5R)-5-[2-chloro-4-[[(1R)-1-[4-(trifluoromethyl)-phenyl]ethyl]amino]-pyrrolo[2,3-d]-pyrimidin-7-yl]-3,4-dihydroxy-tetrahydro-furan-2-yl]methoxy-methylphosphonic acid]		
< 10 nM	< 10 nM	C[C@H](O)C#Cc1nc(NC2CCCC2)c2ccn([C@@H]3O[C@H](COCP(=O)(O)O)[C@@H](O)[C@H]3O)c2n1 [Compound 256, [(2R,3S,4R,5R)-5-[4-(cyclopentylamino)-2-[(3S)-3-hydroxybut-1-ynyl]pyrrolo[2,3-d]-pyrimidin-7-yl]-3,4-dihydroxy-tetrahydro-furan-2-yl]methoxy-methylphosphonic acid]		
< 10 nM	< 10 nM	O=P(O)(O)CS(=O)(=O)C[C@H]1O[C@@H](n2ccc3c(NC4CC(F)(F)C4)nc(Cl)nc32)[C@H](O)[C@@H]1O [Compound 173, [(2S,3S,4R,5R)-5-[2-chloro-4-[(3,3-difluoro-cyclobutyl)amino]-pyrrolo[2,3-d]-pyrimidin-7-yl]-3,4-dihydroxy-tetrahydro-furan-2-yl]methyl-sulfonylmethylphos-phonic acid]		
10 to 100 nM	10 to 100 nM	N#Cc1nc(N2CCOCC2)c2ccn([C@@H]3O[C@H](COCP(=O)(O)O)[C@@H](O)[C@H]3O)c2n1 [Compound 127, [(2R,3S,4R,5R)-5-(2-cyano-4-morpholino-pyrrolo[2,3-d]-pyrimidin-7-yl)-3,4-dihydroxy-tetrahydro-furan-2-yl]methoxy-methylphosphonic acid]		
10 to 100 nM	10 to 100 nM	O=P(O)(O)COC[C@H]1O[C@@H](n2ccc3c(N4CCC(F)(F)CC4)nc(Cl)nc32)[C@H](O)[C@@H]1O [Compound 128, [(2R,3S,4R,5R)-5-[2-chloro-4-(4,4-difluoro-1-piperidyl)pyrrolo-[2,3-d]pyrimidin-7-yl]-3,4-dihydroxy-tetrahydrofuran-2-yl]-methoxymethylphos-phonic acid]		
100 to 1000 nM	100 to 1000 nM	CNc1nc(Cl)nc2c1ccn2[C@@H]1O[C@H](COCP(=O)(O)O)[C@@H](O)[C@H]1O [Compound 96, [(2R,3S,4R,5R)-5-[2-chloro-4-(methyl-amino)pyrrolo[2,3-d]-pyrimidin-7-yl]-3,4-dihydroxy-tetrahydro-furan-2-yl]methoxy-methylphosphonic acid]		
< 10 nM	< 10 nM	O=P(O)(O)COC[C@H]1O[C@@H](n2ccc3c(NC4CCCC4)nc(OCCO)nc32)[C@H](O)[C@@H]1O [Compound 257, ((((2R,3S,4R,5R)-5-(4-(cyclopentylamino)-2-(2-hydroxyethoxy)-7H-pyrrolo[2,3-d]pyrimidin-7-yl)-3,4-dihydroxytetrahydrofuran-2-yl)methoxy)methyl)phosphonic acid]		
< 10 nM	< 10 nM	N#Cc1nc(N2CC3CCCC3C2)c2ccn([C@@H]3O[C@H](COCP(=O)(O)O)[C@@H](O)[C@H]3O)c2n1 (stereo partly drawn) [Compound 201, [(2R,3S,4R,5R)-5-[4-(3,3a,4,5,6,6a-hexa-hydro-1H-cyclopenta-[c]pyrrol-2-yl)-2-cyano-pyrrolo[2,3-d]-pyrimidin-7-yl]-3,4-dihydroxy-tetrahydro-furan-2-yl]methoxy-methylphosphonic acid]		
	10 to 100 nM	O=P(O)(O)COC[C@H]1O[C@@H](n2ccc3c(NC4CCCC4)nc(C(F)F)nc32)[C@H](O)[C@@H]1O [Compound 239, [(2R,3S,4R,5R)-5-[4-(cyclopentylamino)-2-(difluoromethyl)pyrrolo-[2,3-d]pyrimidin-7-yl]-3,4-dihydroxy-tetra-hydrofuran-2-yl]-methoxymethylphos-phonic acid]		
> 1000 nM		CC(C)OP(=O)(O)COC[C@H]1O[C@@H](n2ccc3c(NC4CCCC4)nc(Cl)nc32)[C@H](O)[C@@H]1O [Compound 224, [(2R,3S,4R,5R)-5-[2-chloro-4-(cyclopentyl-amino)pyrrolo[2,3-d]-pyrimidin-7-yl]-3,4-dihydroxy-tetrahydro-furan-2-yl]methoxy-methyl-isopropoxy-phosphinic acid]		
